{"source": "patent US20070074300A1", "about": "“Sialidase inhibitors for the treatment of cardiovascular disease” (priority 2005, published 2007)", "key": {"[1]": {"system": "differentiated human THP-1 macrophages", "assay": "IL-6 production by differentiated THP-1 macrophages in culture (ELISA)", "format": "cell-based", "conditions": "differentiated THP-1 macrophages incubated 3 days with varying concentrations; IL-6 in culture supernatant by ELISA; FIG. 7", "experimental": "The effects of a sialidase inhibitor, N-acetyl-2,3-dehydro-2-deoxyneuraminic acid (ADDN), on the production of the inflammatory cytokine interleukin-6 (IL-6) by differentiated human THP-1 macrophages in culture was measured.\nFIG. 7 illustrates that the inhibition of sialidase activity suppresses production of the pro-atherogenic cytokine IL-6 in differentiated THP-1 macrophages. Differentiated THP-1 macrophages were incubated for 3 days with the varying concentrations of the sialidase inhibitor ADDN. Levels of the cytokine IL-6 in samples of the cell culture supernatant were quantified by ELISA. Data are presented as the mean±standard deviation of triplicate experimental groups. (* denotes significant difference, P<0.001)."}, "[2]": {"system": "ApoE KO mice", "assay": "Serum glucose and serum/lipoprotein cholesterol in apoE KO mice treated with sialidase inhibitor", "format": "in vivo, mouse", "conditions": "vs saline control, FIG. 8", "experimental": "Control mice received daily injections of saline. Data reveal significant reductions in serum glucose levels, and total and LDL cholesterol. P<0.01.\nPlasma was prepared from heparinized blood collected by cardiac puncture (Covey et al 2003). Serum was collected from blood using serum separators (Becton Dickenson). Serum was submitted to the Clinical Diagnostic Laboratory at the McMaster University Medical Centre for analyses of standard metabolic parameters including total cholesterol, LDL cholesterol and glucose. Lipoproteins from plasma were separated by size by fast protein liquid chromatography (FPLC) using an AKTA system (Amersham Biosciences, Inc.) with a Superose 6 HR 10/30 column, as described previously (Covey et al 2003). The total cholesterol content in each fraction was assayed using an enzymatic assay kit from Thermo DMA. Lipoproteins (VLDL, LDL and HDL) from human plasma were run as controls to calibrate the column.\nThe inhibitor, N-Acetyl-2,3-dehydro-2-deoxyneuraminic acid (ADDN), was obtained from Sigma Chemical Company (St. Louis, Mo.). ApoE KO mice were ˜6 weeks of age at the beginning of the study. The mice were randomized into 2 groups of 6. The control group received daily i.p injections of 0.9% saline (0.1 ml/day for […]). The experimental group received daily i.p. injections of 0.9% saline (0.1 ml per day) containing either 0.1 or 0.4 ug ADDN for 7 days. Serum was collected on day 7 and serum glucose, total cholesterol and LDL levels were measured."}, "[3]": {"system": "ApoE KO mice", "assay": "Atherosclerosis (aortic sinus lesion area and volume) in apoE KO mice treated with sialidase inhibitor", "format": "in vivo, mouse", "conditions": "male apoE KO mice aged 7 months, mini-osmotic pump 1.5 micro-g/day for 6 weeks, vs saline", "experimental": "FIG. 9 illustrate a morphometric evaluation of atherosclerotic lesion area (A) and volume (B) in the aortic sinus of male ApoE−/− mice treated for 6 weeks with the sialic acid inhibitor ADDN (N-Acetyl-2,3-dehydro-2-deoxyneuraminic acid). Mice aged 7 months were treated for 6 weeks with either saline or the sialic acid inhibitor ADDN. (n=8 in each case). A third group of mice was euthanized at the beginning of the experiment so that the level of atherosclerosis at the time that treatment was initiated could be measured (Base, n=9). Atherosclerotic lesion cross sectional areas in the aortic root (A) and lesion volumes (B) were measured. Values are the averages ±standard error of the mean. Lesion progression was reduced in ADDN-treated mice compared to saline controls. […]\nFor diet-induced atherosclerosis, mice were fed (beginning four weeks after transplantation) with a high fat, Western-type diet (Covey et al 2003) obtained from Dyets, Inc. (Bethlehem Pa.). […] Atherosclerotic plaque cross sectional area was measured by morphometry using Axiovision software (Carl Zeiss Canada, Inc). A total of eight sections lying at 0.1 mm intervals along the aortic sinus were analyzed for each mouse. […] The volume of atherosclerotic plaque was therefore calculated as the sum of the volumes determined for each 0.1 mm portion of the aortic sinus. […]"}, "[4]": {"conditions": "daily i.p. 0.1 or 0.4 ug for 7 days"}}}
{"smiles": "CC(=O)N[C@H]1[C@H]([C@H](O)[C@H](O)CO)OC(C(=O)O)=C[C@@H]1O", "note": "[ADDN, N-Acetyl-2,3-dehydro-2-deoxyneuraminic acid]", "values": [{"measurement": "production of the inflammatory cytokine IL-6", "setting": "[1]", "result": "reduced production of IL-6"}, {"measurement": "LDL cholesterol", "setting": "[2]; [4]", "result": "significantly less"}, {"measurement": "serum glucose", "setting": "[2]; [4]", "result": "significantly decreased"}, {"measurement": "serum total cholesterol", "setting": "[2]; [4]", "result": "significantly less"}, {"measurement": "HDL cholesterol", "setting": "[2]; daily i.p. injections", "result": "significantly less"}, {"measurement": "growth of atherosclerotic plaque cross sectional area from baseline", "setting": "[3]; aortic root, FIG. 9A", "result": "substantially inhibited"}, {"measurement": "growth of atherosclerotic plaque volume from baseline", "setting": "[3]; aortic sinus, FIG. 9B", "result": "substantially inhibited"}]}
